From paper PMC3481155, “AhR activation underlies the CYP1A autoinduction by A-998679 in rats” (Frontiers in Genetics, 2012)

Legend:
rat Cyp 3A1 = target: T1, rat Cyp 3A1 (Rattus norvegicus, UniProt P04800); experiment: Recombinant rat Cyp phenotype profiling, 3A1; format: in vitro ADME; details: 60 min
T1 construct: purchased BD Gentest; host or cells: baculovirus infected insect cells
Experimental: (§1) Identification of the drug metabolizing enzymes (DMEs) of A-998679 was studied in cDNA expressed recombinant enzymes prepared from baculovirus infected insect cells over-expressing rat Cyp isoforms (BD Gentest, Woburn, MA) as listed in Table 2. Incubations were conducted in duplicate using Supersomes. The incubation mixture contained 100 pmol/ml of enzymes, except for Cyp1a1 (200 pmol/ml), 0.1 or 0.21 μM of [^3H]A-998679 in 100 mM phosphate buffer (pH 7.4). Reactions were initiated with the addition of NADPH at a final concentration of 1 mM and incubated at 37°C for 60 min. At the end of the incubation period, the incubations were terminated by the addition of acetonitrile/ethanol (50/50, v/v) solution. Insect control samples lacking expressed enzyme were used as negative control. The degree of metabolism of A-998679 was assessed by percent of parent remaining using the radio-HPLC method described below.
(§2) Radiolabeled components from the above assays were profiled following separation by HPLC with on line radioflow detector. The system consisted of an Agilent 1100 Series quaternary pump and autosampler connected to a Packard 500TR flow scintillation detector. The data were processed using the Radiomatic™ Flo-one® software v3.65. The scintillant (Perkin Elmer FLO-SCINT™ III) flow was maintained at 3 ml/min. […]

Cyp1a2 = Cyp1a2 mRNA in rat liver after 5 days of dosing (microarray, RT-PCR); format: in vivo
Experimental: All animal experiments were conducted in accordance with the Guiding Principles in the Use of Animals in Toxicology (http://www.toxicology.org/ai/air/air6.asp) and were approved by Abbott's Institutional Animal Care and Use Committee (IACUC). Male Sprague-Dawley rats [Crl:CD®(SD)IGS BR], weighing ~250 g at study initiation were obtained from Charles River Laboratories, Inc. (Wilmington, MA). Rats were housed singly in ventilated, stainless steel, wire-bottom hanging cages and fed non-certified Rodent Chow (Harlan Labs, Madison, WI), and water ad libitum and acclimated for at least 5 days after arrival. […] Serum clinical chemistry parameters were quantified using an Aeroset Clinical Chemistry Analyzer (Abbott Laboratories, Abbott Park, IL) and included alanine amino transferase (ALT), aspartate amino transferase (AST), gamma glutamyltransferase (GGT), and alkaline phosphatase (ALP) activities.
Frozen liver or jejunum were immediately added to 4 ml of TRIzol reagent (Invitrogen Life Technologies) and homogenized using a Polytron 300D homogenizer (Brinkman Instruments, Westbury, NY). […] Nucleic acid concentration was determined by OD 260 nm (Smart-Spec, Bio-Rad Laboratories, Hercules, CA), and RNA integrity was evaluated using an Agilent 2100 bioanalyzer (Agilent Technologies, Foster City, CA). […]

rat Cyp 2C12 = target: T2, rat Cyp 2C12 (Rattus norvegicus, UniProt P11510); experiment: Recombinant rat Cyp phenotype profiling, 2C12; format: in vitro ADME; details: 60 min
T2 construct: purchased BD Gentest; host or cells: baculovirus infected insect cells
T2 sequence (P11510 whole entry): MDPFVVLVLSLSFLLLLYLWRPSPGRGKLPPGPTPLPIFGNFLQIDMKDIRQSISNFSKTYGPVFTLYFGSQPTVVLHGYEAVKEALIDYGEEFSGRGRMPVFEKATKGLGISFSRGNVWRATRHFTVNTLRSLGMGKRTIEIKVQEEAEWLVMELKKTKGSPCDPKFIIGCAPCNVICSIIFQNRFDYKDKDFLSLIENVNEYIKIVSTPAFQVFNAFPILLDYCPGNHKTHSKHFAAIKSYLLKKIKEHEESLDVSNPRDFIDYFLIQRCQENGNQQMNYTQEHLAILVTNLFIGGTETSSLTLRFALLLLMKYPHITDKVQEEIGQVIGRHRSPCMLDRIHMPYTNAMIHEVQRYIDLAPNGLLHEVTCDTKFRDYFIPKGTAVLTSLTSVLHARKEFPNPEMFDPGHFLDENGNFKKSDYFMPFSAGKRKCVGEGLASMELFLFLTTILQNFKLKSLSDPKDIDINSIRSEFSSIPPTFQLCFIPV
Experimental: as §1, §2

rat Cyp 2C13 = target: T3, rat Cyp 2C13 (Rattus norvegicus, UniProt P20814); experiment: Recombinant rat Cyp phenotype profiling, 2C13; format: in vitro ADME; details: 60 min
T3 construct: purchased BD Gentest; host or cells: baculovirus infected insect cells
T3 sequence (P20814 whole entry): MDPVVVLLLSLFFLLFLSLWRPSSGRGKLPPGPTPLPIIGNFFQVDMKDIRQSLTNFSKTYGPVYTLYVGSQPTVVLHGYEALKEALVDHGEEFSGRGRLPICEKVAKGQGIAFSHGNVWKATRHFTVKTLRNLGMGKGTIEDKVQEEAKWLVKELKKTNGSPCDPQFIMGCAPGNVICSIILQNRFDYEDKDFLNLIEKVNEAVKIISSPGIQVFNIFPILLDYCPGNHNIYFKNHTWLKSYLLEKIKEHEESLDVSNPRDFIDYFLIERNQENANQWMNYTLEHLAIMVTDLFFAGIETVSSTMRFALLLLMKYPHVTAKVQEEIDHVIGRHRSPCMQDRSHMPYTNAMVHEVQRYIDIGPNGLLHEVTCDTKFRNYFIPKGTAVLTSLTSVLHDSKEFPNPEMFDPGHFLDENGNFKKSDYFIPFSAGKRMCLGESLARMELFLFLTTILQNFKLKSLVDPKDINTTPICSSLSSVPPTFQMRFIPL
Experimental: as §1, §2

T1 sequence (P04800 whole entry): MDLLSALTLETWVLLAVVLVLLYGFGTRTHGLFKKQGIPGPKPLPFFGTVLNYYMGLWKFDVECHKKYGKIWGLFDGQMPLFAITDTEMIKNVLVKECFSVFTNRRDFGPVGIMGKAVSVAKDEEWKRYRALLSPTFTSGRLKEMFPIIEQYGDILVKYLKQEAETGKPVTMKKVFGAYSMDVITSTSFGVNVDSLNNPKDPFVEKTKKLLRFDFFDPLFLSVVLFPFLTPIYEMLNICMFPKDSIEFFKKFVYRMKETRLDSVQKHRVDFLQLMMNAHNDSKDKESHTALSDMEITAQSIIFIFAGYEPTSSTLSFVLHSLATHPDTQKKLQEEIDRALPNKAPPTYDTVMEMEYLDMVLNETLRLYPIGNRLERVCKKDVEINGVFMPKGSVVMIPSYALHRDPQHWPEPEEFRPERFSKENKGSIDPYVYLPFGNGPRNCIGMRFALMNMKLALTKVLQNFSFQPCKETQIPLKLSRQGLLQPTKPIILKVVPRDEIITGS

% parent remaining (rat Cyp 3A1; recombinant rat Cyp 3A1, 0.10 μM): 93.9%
% parent remaining (rat Cyp 3A1; recombinant rat Cyp 3A1, 0.21 μM): 90.3%
Cyp1a2 mRNA increase in rat liver (microarray) (Cyp1a2; 5 days of dosing, in at least one animal starting at the 100 mg/kg dose): 2–3 fold
Cyp1a2 mRNA expression in rat liver (RT-PCR) (Cyp1a2; 5 days, all doses (30, 100, 200 mg/kg/day)): strongly induced
% parent remaining (rat Cyp 2C12; recombinant rat Cyp 2C12, 0.10 μM): 100%
% parent remaining (rat Cyp 2C12; recombinant rat Cyp 2C12, 0.21 μM): 100%
% parent remaining (rat Cyp 2C13; recombinant rat Cyp 2C13, 0.10 μM): 100%
% parent remaining (rat Cyp 2C13; recombinant rat Cyp 2C13, 0.21 μM): 100%
Structure (SMILES): N#Cc1cccc(-c2noc(-c3cccnc3)n2)c1 [A-998679, 3-(5-pyridin-3-yl-1,2,4-oxadiazol-3-yl) benzonitrile]
